Laboratory results: patent US11505543B2, “4-oxo-3,4-dihydroquinazoline compounds as inhibitors of human immunodeficiency virus replication” (VIIV HEALTHCARE UK (NO.5) LIMITED, priority 2018, dated 2022)

Experiments:
[1] = test system: recombinant NL4-3 virus (nef section replaced with Renilla luciferase gene) in MT-2 cells; assay: HIV cell culture assay (antiviral activity, luciferase readout); format: cell-based; details: Renilla, NL43, MT-2 cells infected for 4-5 days with recombinant NL4-3 Renilla luciferase virus, serial dilutions of compound
How it was run: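 Test compound in serial dilution was present while MT-2 cells were infected for 4–5 days with recombinant NL4-3 virus made in 293T cells. Antiviral activity was quantified as Renilla luciferase activity, read with a live-cell substrate. EC50 came from the median-effect equation.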

[2] = Compound cytotoxicity, XTT-based colorimetric assay; format: cell-based; details: human, uninfected MT2 cells, day 4, XTT
How it was run: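 Run under the antiviral-assay protocol but without virus. Viability was read on day 4 and CC50 values were derived from the readout.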

For Cn1nc(NS(C)(=O)=O)c2c(Cl)ccc(-n3c([C@H](Cc4cc(F)cc(F)c4)NC(=O)Cn4nc(C(F)F)c5c4C(F)(F)[C@@H]4C[C@H]54)nc4cc(-c5cc[nH]n5)ccc4c3=O)c21 (atropisomer, axis not shown; (aR)) [Example 78, N-((S)-1-(3-(4-chloro-1-methyl-3-(methylsulfonamido)-1H-indazol-7-yl)-4-oxo-7-(1H-pyrazol-3-yl)-3,4-dihydroquinazolin-2-yl)-2-(3,5-difluorophenyl)ethyl)-2-((3bS,4aR)-3-(difluoromethyl)-5,5-difluoro-3b,4,4a,5-tetrahydro-1H-cyclopropa[3,4]cyclopenta[1,2-c]pyrazol-1-yl)acetamide], the EC50 [1] was 0.12 nM and the CC50 at 4 day [2] was over 1000 nM.
Work on Cn1nc(NS(C)(=O)=O)c2c(Cl)ccc(-n3c([C@H](Cc4cc(F)cc(F)c4)NC(=O)Cn4nc(C(F)F)c5c4C(F)(F)[C@@H]4C[C@H]54)nc4cc(-c5ccc6c7c(ccnc57)CCO6)ccc4c3=O)c21 (atropisomer, axis not shown; (aR)) [Example 82, N-((S)-1-(3-(4-chloro-1-methyl-3-(methylsulfonamido)-1H-indazol-7-yl)-7-(2,3-dihydropyrano[4,3,2-de]quinolin-7-yl)-4-oxo-3,4-dihydroquinazolin-2-yl)-2-(3,5-difluorophenyl)ethyl)-2-((3bS,4aR)-3-(difluoromethyl)-5,5-difluoro-3b,4,4a,5-tetrahydro-1H-cyclopropa[3,4]cyclopenta[1,2-c]pyrazol-1-yl)acetamide] yielded an EC50 [1] of 7 nM and a CC50 at 4 day [2] of over 1000 nM.
Work on Cn1nc(NS(C)(=O)=O)c2c(Cl)ccc(-n3c([C@H](Cc4cc(F)cc(F)c4)NC(=O)Cn4nc(C(F)F)c5c4C(F)(F)[C@@H]4C[C@H]54)nc4cc(-c5cncnc5)ccc4c3=O)c21 (atropisomer, axis not shown; (aR)) [Example 84, N-((S)-1-(3-(4-chloro-1-methyl-3-(methylsulfonamido)-1H-indazol-7-yl)-4-oxo-7-(pyrimidin-5-yl)-3,4-dihydroquinazolin-2-yl)-2-(3,5-difluorophenyl)ethyl)-2-((3bS,4aR)-3-(difluoromethyl)-5,5-difluoro-3b,4,4a,5-tetrahydro-1H-cyclopropa[3,4]cyclopenta[1,2-c]pyrazol-1-yl)acetamide] yielded an EC50 [1] of 0.068 nM and a CC50 at 4 day [2] of over 1000 nM.
Work on COc1cccc(OC)c1-c1ccc2c(=O)n(-c3ccc(Cl)c4c(NS(C)(=O)=O)nn(C)c34)c([C@H](Cc3cc(F)cc(F)c3)NC(=O)Cn3nc(C(F)F)c4c3C(F)(F)[C@@H]3C[C@H]43)nc2c1 (atropisomer, axis not shown; (aR)) [Example 86, N-((S)-1-(3-(4-chloro-1-methyl-3-(methylsulfonamido)-1H-indazol-7-yl)-7-(2,6-dimethoxyphenyl)-4-oxo-3,4-dihydroquinazolin-2-yl)-2-(3,5-difluorophenyl)ethyl)-2-((3bS,4aR)-3-(difluoromethyl)-5,5-difluoro-3b,4,4a,5-tetrahydro-1H-cyclopropa[3,4]cyclopenta[1,2-c]pyrazol-1-yl)acetamide] yielded an EC50 [1] of 0.5 nM and a CC50 at 4 day [2] of over 1000 nM.
Work on Cn1nc(NS(C)(=O)=O)c2c(Cl)ccc(-n3c([C@H](Cc4cc(F)cc(F)c4)NC(=O)Cn4nc(C(F)F)c5c4C(F)(F)[C@@H]4C[C@H]54)nc4cc(-c5ccccn5)ccc4c3=O)c21 (atropisomer, axis not shown; (aR)) [Example 87, N-((S)-1-(3-(4-chloro-1-methyl-3-(methylsulfonamido)-1H-indazol-7-yl)-4-oxo-7-(pyridin-2-yl)-3,4-dihydroquinazolin-2-yl)-2-(3,5-difluorophenyl)ethyl)-2-((3bS,4aR)-3-(difluoromethyl)-5,5-difluoro-3b,4,4a,5-tetrahydro-1H-cyclopropa[3,4]cyclopenta[1,2-c]pyrazol-1-yl)acetamide] yielded an EC50 [1] of 0.09 nM and a CC50 at 4 day [2] of over 1000 nM.
With Cc1ccccc1-c1ccc2c(=O)n(-c3ccc(Cl)c4c(NS(C)(=O)=O)nn(C)c34)c([C@H](Cc3cc(F)cc(F)c3)NC(=O)Cn3nc(C(F)F)c4c3C(F)(F)[C@@H]3C[C@H]43)nc2c1 (atropisomer, axis not shown; (aR)) [Example 88, N-((S)-1-(3-(4-chloro-1-methyl-3-(methylsulfonamido)-1H-indazol-7-yl)-4-oxo-7-(o-tolyl)-3,4-dihydroquinazolin-2-yl)-2-(3,5-difluorophenyl)ethyl)-2-((3bS,4aR)-3-(difluoromethyl)-5,5-difluoro-3b,4,4a,5-tetrahydro-1H-cyclopropa[3,4]cyclopenta[1,2-c]pyrazol-1-yl)acetamide] the EC50 [1] was 0.73 nM and the CC50 at 4 day [2] was over 1000 nM.
For Cc1n[nH]c(C)c1-c1ccc2c(=O)n(-c3ccc(Cl)c4c(NS(C)(=O)=O)nn(C)c34)c([C@H](Cc3cc(F)cc(F)c3)NC(=O)Cn3nc(C(F)F)c4c3C(F)(F)[C@@H]3C[C@H]43)nc2c1 (atropisomer, axis not shown; (aR)) [Example 89, N-((S)-1-(3-(4-chloro-1-methyl-3-(methylsulfonamido)-1H-indazol-7-yl)-7-(3,5-dimethyl-1H-pyrazol-4-yl)-4-oxo-3,4-dihydroquinazolin-2-yl)-2-(3,5-difluorophenyl)ethyl)-2-((3bS,4aR)-3-(difluoromethyl)-5,5-difluoro-3b,4,4a,5-tetrahydro-1H-cyclopropa[3,4]cyclopenta[1,2-c]pyrazol-1-yl)acetamide], the EC50 [1] was 3.4 nM and the CC50 at 4 day [2] was over 1000 nM.
With Cc1cc(Cl)ccc1-c1ccc2c(=O)n(-c3ccc(Cl)c4c(NS(C)(=O)=O)nn(C)c34)c([C@H](Cc3cc(F)cc(F)c3)NC(=O)Cn3nc(C(F)F)c4c3C(F)(F)[C@@H]3C[C@H]43)nc2c1 (atropisomer, axis not shown; (aR)) [Example 90] the EC50 [1] was 5.7 nM and the CC50 at 4 day [2] was over 1000 nM.
Compound Cn1nc(NS(C)(=O)=O)c2c(Cl)ccc(-n3c([C@H](Cc4cc(F)cc(F)c4)NC(=O)Cn4nc(C(F)F)c5c4C(F)(F)[C@@H]4C[C@H]54)nc4cc(-c5ccc(S(=O)(=O)N6CCOCC6)cc5)ccc4c3=O)c21 (atropisomer, axis not shown; (aR)) [Example 91, N-((S)-1-(3-(4-chloro-1-methyl-3-(methylsulfonamido)-1H-indazol-7-yl)-7-(4-(morpholinosulfonyl)phenyl)-4-oxo-3,4-dihydroquinazolin-2-yl)-2-(3,5-difluorophenyl)ethyl)-2-((3bS,4aR)-3-(difluoromethyl)-5,5-difluoro-3b,4,4a,5-tetrahydro-1H-cyclopropa[3,4]cyclopenta[1,2-c]pyrazol-1-yl)acetamide] has an EC50 [1] of 0.39 nM and a CC50 at 4 day [2] of over 1000 nM.
Cc1noc(C)c1-c1ccc2c(=O)n(-c3ccc(Cl)c4c(NS(C)(=O)=O)nn(C)c34)c([C@H](Cc3cc(F)cc(F)c3)NC(=O)Cn3nc(C(F)F)c4c3C(F)(F)[C@@H]3C[C@H]43)nc2c1 (atropisomer, axis not shown; (aR)) [Example 94, N-((S)-1-(3-(4-chloro-1-methyl-3-(methylsulfonamido)-1H-indazol-7-yl)-7-(3,5-dimethylisoxazol-4-yl)-4-oxo-3,4-dihydroquinazolin-2-yl)-2-(3,5-difluorophenyl)ethyl)-2-((3bS,4aR)-3-(difluoromethyl)-5,5-difluoro-3b,4,4a,5-tetrahydro-1H-cyclopropa[3,4]cyclopenta[1,2-c]pyrazol-1-yl)acetamide] showed an EC50 [1] of 0.44 nM and a CC50 at 4 day [2] of over 1000 nM.
Cn1nc(NS(C)(=O)=O)c2c(Cl)ccc(-n3c([C@H](Cc4cc(F)cc(F)c4)NC(=O)Cn4nc(C(F)F)c5c4C(F)(F)[C@@H]4C[C@H]54)nc4cc(-c5cnccc5F)ccc4c3=O)c21 (atropisomer, axis not shown; (aR)) [Example 96, N-((S)-1-(3-(4-chloro-1-methyl-3-(methylsulfonamido)-1H-indazol-7-yl)-7-(4-fluoropyridin-3-yl)-4-oxo-3,4-dihydroquinazolin-2-yl)-2-(3,5-difluorophenyl)ethyl)-2-((3bS,4aR)-3-(difluoromethyl)-5,5-difluoro-3b,4,4a,5-tetrahydro-1H-cyclopropa[3,4]cyclopenta[1,2-c]pyrazol-1-yl)acetamide] gave an EC50 [1] of 0.076 nM and a CC50 at 4 day [2] of over 1000 nM.
Work on Cn1nc(NS(C)(=O)=O)c2c(Cl)ccc(-n3c([C@H](Cc4cc(F)cc(F)c4)NC(=O)Cn4nc(C(F)F)c5c4C(F)(F)[C@@H]4C[C@H]54)nc4cc(-c5ccc(F)c(C#N)c5)ccc4c3=O)c21 (atropisomer, axis not shown; (aR)) [Example 97, N-((S)-1-(3-(4-chloro-1-methyl-3-(methylsulfonamido)-1H-indazol-7-yl)-7-(3-cyano-4-fluorophenyl)-4-oxo-3,4-dihydroquinazolin-2-yl)-2-(3,5-difluorophenyl)ethyl)-2-((3bS,4aR)-3-(difluoromethyl)-5,5-difluoro-3b,4,4a,5-tetrahydro-1H-cyclopropa[3,4]cyclopenta[1,2-c]pyrazol-1-yl)acetamide] yielded an EC50 [1] of 0.4 nM and a CC50 at 4 day [2] of over 1000 nM.
Cn1nc(NS(C)(=O)=O)c2c(Cl)ccc(-n3c([C@H](Cc4cc(F)cc(F)c4)NC(=O)Cn4nc(C(F)F)c5c4C(F)(F)[C@@H]4C[C@H]54)nc4cc(-c5ccc(F)c(CO)c5)ccc4c3=O)c21 (atropisomer, axis not shown; (aR)) [Example 98, N-((S)-1-(3-(4-chloro-1-methyl-3-(methylsulfonamido)-1H-indazol-7-yl)-7-(4-fluoro-3-(hydroxymethyl)phenyl)-4-oxo-3,4-dihydroquinazolin-2-yl)-2-(3,5-difluorophenyl)ethyl)-2-((3bS,4aR)-3-(difluoromethyl)-5,5-difluoro-3b,4,4a,5-tetrahydro-1H-cyclopropa[3,4]cyclopenta[1,2-c]pyrazol-1-yl)acetamide] gave an EC50 [1] of 0.39 nM and a CC50 at 4 day [2] of over 1000 nM.
